This passage reports Ratio results from ChEMBL document CHEMBL2448809, “UCSF DeRisi Lab MMV Box Apicoplast Screening”.

The assay has as its system Plasmodium falciparum. The assay is described as follows: MMV: Compounds (1uM) were screened in a 72hr growth assay monitored by flow cytometry both in the presence and absence of supplemental isopentenyl pyrophosphate (IPP) 200uM. Compounds which fail to show anti-malarial activity when chemically rescued by IPP are therefore specific to the apicoplast. The values are expressed as the ratio of the corresponding activity with and without IPP, respectively. The assay is classed as functional, W2. (In general: A flow cytometer gives signals particle by particle.)
With `O=C(Nc1ccc(Cl)c(Cl)c1)Nc1ccc(Cl)c(Cl)c1`, the Ratio came out at 1.022. Regarding `COc1ccc(-c2cc3c(nn2)-c2ccccc2C3=O)cc1`, the Ratio is given as 1.105. Then `COc1ccc(C2c3ccc4ccccc4c3Oc3ncn(CCCN(C)C)c(=N)c32)cc1` (stereo not drawn), with 1.078.

For `N=c1n(CCN2CCCCC2)c2ccccc2n1CC(=O)c1ccc(Cl)c(Cl)c1`, the Ratio was determined as 1.14.

Consider `Nc1nc(Nc2cccc(F)c2)nc2ccccc12`, for which the Ratio worked out at 1.176. Then `COc1ccc(/C=C2/SC(=Nc3ccccc3)NC2=O)cc1`, with 1.136; and `c1ccc(/C2=N/c3ccccc3/N=C(/c3ccccc3)c3ccccc32)cc1`, with 0.807. On to `COc1ccc(-c2nc(N3CCN(C(=O)C4CCCCC4)CC3)c3c4c(sc3n2)CCCC4)cc1`, for which the Ratio stood at 1.015. Then `O=C(NC1CCN(Cc2ccccc2)CC1)c1cc2nc(-c3ccc(Cl)s3)cc(C(F)(F)F)n2n1`, with 0.6993. Turning to `Cc1sc(NC(=O)c2ccccc2)c(C(c2cccs2)N2CCN(c3ccccc3)CC2)c1C` (stereo not drawn), the Ratio was determined as 0.9412. Turning to `CCOC(=O)c1c(C)n(-c2ccccc2)c2ccc(OC(=O)c3cc(OC)c(OC)c(OC)c3)cc12`, the Ratio came to 0.9.

Consider `COc1cc(C(=O)Nc2nc3c(cc4c5c(cccc53)CC4)s2)cc(OC)c1OC`, for which the Ratio is on record as 0.8259. As for `COc1ccc(CCN2C(=O)c3[nH]nc(-c4cc(Cl)c(C)cc4O)c3C2c2ccccc2F)cc1` (stereo not drawn), the Ratio is recorded as 0.7742.

Turning to `N#Cc1nc(Cc2cccc3ccccc23)oc1N1CCN(C(c2ccccc2)c2ccccc2)CC1`, the Ratio amounted to 1.062.

Regarding `COc1ccc(C2c3ccc4ccccc4c3Oc3ncn(CCCn4ccnc4)c(=N)c32)cc1OC` (stereo not drawn), the Ratio is recorded as 1.051. For `CN(N=O)C1=C(NC2CCCCC2)C(=O)c2ccccc2C1=O`, the Ratio worked out at 1.071. For `CCOC(=O)C1=C(C)N=c2sc(=Cc3ccccc3O)c(=O)n2C1c1ccc(OC)c2ccccc12` (stereo not drawn), the Ratio amounted to 1.667. Next, `CCOc1ccc(N2C(N)=NC(N)=NC2(C)C)cc1.Cl`: 0.7815; `COc1cccc(Nc2nc(N)c3ccccc3n2)c1.Cl`: 0.9815; `Cc1ccc(C(=O)c2oc3ccc4c(C)cc(=O)oc4c3c2C)cc1`: 1.018. On to `COc1ccc(CN2CCCC(C(=O)c3ccc(C(F)(F)F)cc3)C2)c(O)c1` (stereo not drawn), for which the Ratio was found to be 0.8852. Regarding `CCCCCCc1cc2cc(-c3csc(C=Cc4ccccc4)n3)c(=O)oc2cc1O`, the Ratio is 0.86. Take `O=C(CCl)NCCOc1ccc(Cl)cc1Cl`: the Ratio amounted to 1.041. Consider `Oc1ccc(-c2nc(-c3ccc4oc5ccc(-c6[nH]c(-c7ccc(O)cc7)nc6-c6ccccc6)cc5c4c3)c(-c3ccccc3)[nH]2)cc1`, for which the Ratio is listed as 0.8182. Then `O=C(NC1CCCCC1)C(c1cccs1)N(CCc1ccccc1)C(=O)c1ccco1` (stereo not drawn), with 0.9135; and `CC(Oc1ccc(NC(=O)c2cccs2)cc1)C(=O)c1ccc(Cl)cc1` (stereo not drawn), with 1. In the case of `Cl.c1ccc2c(NCCCCCCNc3c4c(nc5ccccc35)CCCC4)c3c(nc2c1)CCCC3`, the Ratio was found to be 1.108.

As for `COc1ccc(CNC(=O)c2cc3c(=O)n4ccccc4nc3n(CCc3ccccc3)c2=N)cc1`, the Ratio is 0.8046. Regarding `Brc1ccc(Nc2nc3ccccc3nc2Nc2ccc(Br)cc2)cc1`, the Ratio was 0.8871. Take `O=C(NC1CCN(Cc2ccccc2)CC1)c1cc(C(=O)NC2CCN(Cc3ccccc3)CC2)cc(C(=O)NC2CCN(Cc3ccccc3)CC2)c1`: the Ratio was found to be 1.119. `COc1ccc(CCn2c(=N)c(C(=O)NCc3cccnc3)cc3c(=O)n4cccc(C)c4nc32)cc1`: the Ratio is 0.875. Consider `Nc1ccc(-c2nc3cc(Cc4ccc5[nH]c(-c6ccc(N)cc6)nc5c4)ccc3[nH]2)cc1`, for which the Ratio is 1.333.

Consider `COc1ccc(-c2cn3c(C(=O)Nc4ccccc4Cl)c(-c4ccccc4)c4c3n2CCCC4)cc1`, for which the Ratio came out at 1.057. Next, `CCCCOC(=O)c1ccc(Nc2cc(C)nc3ccc(OC)cc23)cc1`: 1.132.

With `Cl.Cn1c(=O)n(C)c2cc(CNCCNc3ccnc4cc(Cl)ccc34)ccc21`, the Ratio came to 1.09. Turning to `Cc1cc(Nc2ccc(OCc3ccccc3)cc2)nc2cc(O)ccc12`, the Ratio is 0.8026. Turning to `CCN(CC)CCNc1ccnc2cc3ccccc3cc12.O=P(O)(O)O`, the Ratio is 1.056. For the compound `CCOc1ccc2nc(C)cc(Nc3ccc(N(C)C)cc3)c2c1.Cl`, the Ratio is recorded as 1.135. Turning to `COc1ccc(Nc2cc(C)nc(NCc3ccccc3)n2)cc1`, the Ratio is listed as 0.7294. As to `N=c1c2ccccc2nnn1-c1cccc(C(F)(F)F)c1`, the Ratio was 1.0625. `COc1cc(-c2nc(-c3ccc(Sc4ccccc4)cc3)c(-c3ccccc3)[nH]2)cc(OC)c1O`: the Ratio is 1.071. Turning to `COc1ccc(C=C2SC(Nc3ccc(F)cc3)=NC2=O)c(OC)c1`, the Ratio is 0.9324. `Oc1ccc2ccccc2c1CNc1nc2ccccc2[nH]1`: the Ratio is reported as 0.578. As for `COc1ccc(C2NCCc3c2[nH]c2ccccc32)cc1CN1CCN(c2ccc(F)cc2)CC1.Cl` (stereo not drawn), the Ratio was 0.8727. Then `O=C1c2ccc3c4c(ccc(c24)C(=O)N1CCCCO)C(=O)N(CCCCO)C3=O`, with 1.047; and `O=C(Nc1ccc(-c2nc3cc(NC(=O)c4ccc(Cl)cc4)ccc3[nH]2)cc1)c1ccc(Cl)cc1`, with 0.9036; and `OC(Cn1nnc2ccccc21)Cn1c2ccc(Br)cc2c2cc(Br)ccc21` (stereo not drawn), with 0.9531.

Turning to `CCOc1ccc(-n2cc(-c3ccccc3)c3c(SCc4cc(C)ccc4C)ncnc32)cc1`, the Ratio is 0.9394.

As for `Cc1ccc(C)c(Cn2c(N3CCC(C(=O)NCc4cccs4)CC3)nc3ccccc32)c1`, the Ratio is 1. In the case of `Cc1ccccc1OCCSc1nc2ccc(NC(=O)c3cccs3)cc2s1`, the Ratio turned out to be 0.9467. Take `CCOC(=O)c1cnc2ccc(OC)cc2c1Nc1ccc(N2CCN(C)CC2)cc1`: the Ratio is listed as 0.9667.

Regarding `COc1ccccc1C(=O)ON=C(N)Cc1cccc2ccccc12`, the Ratio was 1.06. For the compound `COc1ccc(C(=O)C(CCC(CNC(C)(C)C)C(=O)c2ccc(OC)cc2)CNC(C)(C)C)cc1` (stereo not drawn), the Ratio is 0.9453. Take `CCOc1cc2c(cc1OCC)C(c1cc(Cl)ccc1O)NCC2` (stereo not drawn): the Ratio turned out to be 1.123. Take `COc1ccc(C2C(C(=O)Nc3cccc(OC)c3)c3ccccc3C(=O)N2C2CCCCC2)cc1` (stereo not drawn): the Ratio is on record as 0.7969. Next, `c1ccc2c(NCCc3c[nH]c4ccccc34)c3ccccc3nc2c1`: 1.057; `CCN(CC)CCCNc1ccnc2cc3ccccc3cc12`: 0.9344; `CN1C=C(c2ccc3ccccc3n2)C(c2c[nH]c3ccccc23)c2ccccc21` (stereo not drawn): 1.295. For `O=C(Nc1ccc(-c2nc3cc4ccccc4cc3[nH]2)cc1)c1cccc(Br)c1`, the Ratio stood at 1.254. Take `Cc1ccc(-c2nc3ccccc3o2)cc1NCc1cc(Cc2ccccc2)ccc1O`: the Ratio stood at 1.167. Consider `OC(CNC1CCCCC1)Cn1c2ccc(I)cc2c2cc(I)ccc21` (stereo not drawn), for which the Ratio came to 1.043.

Take `COc1ccc(C(O)(CCC(C)C)C(CN2CCOCC2)c2ccc(Cl)cc2)cc1.Cl` (stereo not drawn): the Ratio worked out at 1.06. For `CCCOCc1cc(CN2CCN(c3cccc(Cl)c3)CC2)c(O)c2ncccc12`, the Ratio worked out at 0.9844. With `O=C(Cc1ccccc1)NC(c1ccc(Cl)cc1)c1c(O)ccc2ccccc12` (stereo not drawn), the Ratio is recorded as 0.873. Next, `COc1cc(CNCCc2ccc(Cl)cc2)cc(OC)c1O`: 0.9459; `c1ccc(CNc2nc(Nc3ccccc3)nc3ccccc23)cc1`: 1. As to `COc1ccc(C(=O)NC(c2ccccc2Cl)c2cc(Cl)c3cccnc3c2O)cc1` (stereo not drawn), the Ratio worked out at 1.365. Consider `Cc1cccc(N2C(=O)C3C(C2=O)C2(c4ccccc4)C(=O)C3(c3ccccc3)C(c3ccc4c(c3)OCO4)=C2c2ccc3c(c2)OCO3)c1` (stereo not drawn), for which the Ratio is on record as 0.9857. In the case of `Oc1ccc(Br)cc1CN1CCN(Cc2ccc(Cl)cc2)CC1`, the Ratio is on record as 0.9138. `CCCc1c(C)nc2ccc(Br)cc2c1O`: the Ratio is recorded as 1.

As for `Cc1ccc(F)cc1NC(=O)c1cc(Cl)ccc1Nc1ccccc1`, the Ratio is 1.055.

`CCOc1ccc2nc(C)cc(Nc3ccc(Br)cc3)c2c1`: the Ratio is recorded as 1.038. With `COc1cc2c3cc1Oc1c(OC)c(OC)cc4c1C(Cc1ccc(O)c(c1)Oc1ccc(cc1)CC3N(C)CC2)N(C)CC4.Cl` (stereo not drawn), the Ratio is listed as 0.95. Consider `CCCCCCc1cc2cc(-c3nc4ccccc4[nH]3)c(=Nc3ccccc3C)oc2cc1O`, for which the Ratio is reported as 0.9685. `CCCCCCC(O)(c1ccc(F)cc1)C(CN1CCOCC1)c1ccccc1.Cl` (stereo not drawn): the Ratio worked out at 0.9077. In the case of `Br.Cc1ccc(C)c(-c2csc(Nc3ccc(C)c(C)c3)n2)c1`, the Ratio is on record as 1.048. Then `COc1cc(OC)cc(N2C(=O)N(Cc3ccc(C(C)(C)C)cc3)c3ccccc3S2(=O)=O)c1`, with 0.9143; and `CCOc1c(Br)cc(C2C(C(=O)OC)=CN(C)C=C2C(=O)OC)cc1OC`, with 1.02; and `COc1ccc2sc(N(Cc3cccnc3)C(=O)c3ccc(C#N)cc3)nc2c1`, with 0.8548. In the case of `CC1CC2=C(CC1CNCCCN(C)C)C(C)(C)CCC2` (stereo not drawn), the Ratio worked out at 0.931. Consider `CN(C)c1ccc(N=Cc2ccc(N3CCOCC3)cc2)cc1`, for which the Ratio stood at 0.9558. Next, `COc1ccccc1N1C(=N)SC(=Cc2ccc(OCc3ccccc3F)cc2)C1=O`: 1.033; `CCOC(=O)c1cnc2ccc(OC)cc2c1NCc1ccccc1`: 0.7154. With `CCOC(=O)C1=CN(C)C=C(C(=O)OCC)C1c1cc(Br)c(OCC)c(OC)c1`, the Ratio is 1.052. Then `CC(C)(C)c1ccc(C2CC3=Nc4ccccc4N(C(=O)c4ccccc4Cl)C(c4ccc(F)cc4)C3=C(O)C2)cc1` (stereo not drawn), with 1; and `CN1CCN(c2nc(Nc3ccc(O)cc3)nc3ccccc23)CC1.Cl`, with 0.8636. `CCOC(=O)c1c[nH]c2c(CC)cccc2c1=O`: the Ratio was 0.8986.

As to `CCCCc1c(CCC)c(=N)c2ccccc2n1C.I`, the Ratio worked out at 0.7821.
